From US4015974A, “Amido phosphorothiolates” (priority 1972, dated 1977)

How the values were obtained:
Type in all cases: in vivo
[1] = tested on: barnyard grass (Echinochloa crus-galli); test: Pre-emergence application, herbicidal effect on barnyard grass (Table 1); design: key: 0: not damaged; 5: completely killed; settings: 20 days after application, score 0-5
Text: (§1) Seeds of barnyard grass (Echinochloa crus-galli) and large crabgrass (Digitaria sanguinalis) as representatives of grassy weeds and those of radish, redroot pigweed (Amaranthus retroflexus), common purslane (Portulaca oleracea) and common lambsquarter (Chenopodium album) as representatives of broad-leaved weeds were individually sowed in flower pots of about 10 cm. in diameter. After covering the seeds with soil, test compounds as shown in Table 1 were individually applied to the soil treatment. Thereafter the plants were grown in a green house and 20 days after application the herbicidal effects of the compounds were observed, the results of which are as shown in Table 1.
(§2) Herbicidal effects were evaluated by the numerals ranging from 0 (not damaged) to 5 (completely killed). All the test compounds were used in the form of wettable powder and diluted with water before application.

[2] = tested on: broad-leaved weeds, e.g., monochoria, false pimpernel and toothcup; test: Water application, herbicidal effect on broad-leaved weeds (Table 2); design: key: 0: not damaged; 5: completely killed; settings: 25 days, score 0-5
Text: (§3) Wagner pots of 14 cm. in diameter, which had been packed with 1.5 kg. of paddy field soil, were brought into the state of paddy fields. To the pots were transplanted rice seedlings at the 3-leave stage. Further, seeds of barnyard grass (Echinochloa crus-galli) were sowed in the pots and required amounts of test compounds were applied to the soil under water lodged condition. 25 days after application, the degrees of herbicidal activity and phytotoxity were investigated on above-mentioned plants which had been transplanted and sowed, and on broad-leaved weeds, e.g., monochoria (Monochoria viaginalis Presl.), false pimpernel (Linderna pyxidaria) and toothcup (Rotala indica Koehue), which had been spontaneously germinated. The test compounds were used in the form of wettable powder. The herbicidal effects and the phytotoxity were evaluated as follows by the numerals ranging from 0 to 5.

rice = test: Water application, phytotoxicity on rice (Table 2); design: key: 0: no effect; 1: very slightly affected; 2: slightly affected; 3: moderately affected; 4: considerably affected; 5: completely killed; settings: 25 days, score 0-5
Text: as §3

[3] = tested on: large crabgrass (Digitaria sanguinalis); test: Pre-emergence application, herbicidal effect on large crabgrass (Table 1); design: key: 0: not damaged; 5: completely killed; settings: 20 days after application, score 0-5
Text: as §1, §2

[4] = tested on: barnyard grass (Echinochloa crus-galli); test: Water application, herbicidal effect on barnyard grass (Table 2); design: key: 0: not damaged; 5: completely killed; settings: 25 days, score 0-5
Text: as §3

[5] = tested on: redroot pigweed (Amaranthus retroflexus); test: Pre-emergence application, herbicidal effect on redroot pigweed (Table 1); design: key: 0: not damaged; 5: completely killed; settings: 20 days after application, score 0-5
Text: as §1, §2

radish = test: Pre-emergence application, herbicidal effect on radish (Table 1); design: key: 0: not damaged; 5: completely killed; settings: 20 days after application, score 0-5
Text: as §1, §2

[6] = tested on: common lambsquarter (Chenopodium album); test: Pre-emergence application, herbicidal effect on common lambsquarter (Table 1); design: key: 0: not damaged; 5: completely killed; settings: 20 days after application, score 0-5
Text: as §1, §2

[7] = tested on: common purslane (Portulaca oleracea); test: Pre-emergence application, herbicidal effect on common purslane (Table 1); design: key: 0: not damaged; 5: completely killed; settings: 20 days after application, score 0-5
Text: as §1, §2

Row | Structure (SMILES) | Herbicidal effect, barnyard grass ([1]; 10 g./a.) | Herbicidal effect, barnyard grass ([1]; 20 g./a.) | Herbicidal effect, barnyard grass ([1]; 40 g./a.) | Herbicidal effects, broad-leaved weeds ([2]; 10 g/a) | Herbicidal effects, broad-leaved weeds ([2]; 20 g/a) | Herbicidal effects, broad-leaved weeds ([2]; 40 g/a) | Phytotoxicity on rice (rice; 10 g/a) | Phytotoxicity on rice (rice; 20 g/a) | Phytotoxicity on rice (rice; 40 g/a) | Herbicidal effect, large crabgrass ([3]; 10 g./a.) | Herbicidal effect, large crabgrass ([3]; 20 g./a.) | Herbicidal effect, large crabgrass ([3]; 40 g./a.) | Herbicidal effects, barnyard grass ([4]; 10 g/a) | Herbicidal effects, barnyard grass ([4]; 20 g/a) | Herbicidal effects, barnyard grass ([4]; 40 g/a) | Herbicidal effect, redroot pigweed ([5]; 10 g./a.) | Herbicidal effect, redroot pigweed ([5]; 20 g./a.) | Herbicidal effect, redroot pigweed ([5]; 40 g./a.) | Herbicidal effect, radish (radish; 10 g./a.) | Herbicidal effect, radish (radish; 20 g./a.) | further results
1 | CCCOP(=O)(SCC)SCC(=O)N1CCCCC1CC (stereo not drawn) [Compound 84] | 5 | 5 | 5 | 5 | 5 | 5 | 0 | 0 | 2 | 5 | 5 | 5 | 5 | 5 | 5 | 4 | 5 | 5 | 0 | 1 | Herbicidal effect, radish (radish; 40 g./a.): 2; Herbicidal effect, common lambsquarter ([6]; 10 g./a.): 4; Herbicidal effect, common lambsquarter ([6]; 20 g./a.): 5; Herbicidal effect, common lambsquarter ([6]; 40 g./a.): 5; Herbicidal effect, common purslane ([7]; 10 g./a.): 5; Herbicidal effect, common purslane ([7]; 20 g./a.): 5; Herbicidal effect, common purslane ([7]; 40 g./a.): 5
2 | CCCCOP(=O)(SCCC)SCC(=O)N1CCCCC1CC (stereo not drawn) [Compound 93] | 5 | 5 | 5 | 5 | 5 | 5 | 0 | 0 | 0 | 5 | 5 | 5 | 5 | 5 | 5 | 4 | 5 | 5 | 0 | 0 | Herbicidal effect, radish (radish; 40 g./a.): 0; Herbicidal effect, common lambsquarter ([6]; 10 g./a.): 4; Herbicidal effect, common lambsquarter ([6]; 20 g./a.): 5; Herbicidal effect, common lambsquarter ([6]; 40 g./a.): 5; Herbicidal effect, common purslane ([7]; 10 g./a.): 4; Herbicidal effect, common purslane ([7]; 20 g./a.): 4; Herbicidal effect, common purslane ([7]; 40 g./a.): 5
3 | CCOP(=O)(SCC(=O)N1CCC(C)CC1)SC(C)C (stereo not drawn) [Compound 26] | 4 | 5 | 5 | 5 | 5 | 5 | 0 | 0 | 0 | 4 | 5 | 5 | 5 | 5 | 5 | 4 | 4 | 4 | 0 | 0 | Herbicidal effect, radish (radish; 40 g./a.): 0; Herbicidal effect, common lambsquarter ([6]; 10 g./a.): 3; Herbicidal effect, common lambsquarter ([6]; 20 g./a.): 4; Herbicidal effect, common lambsquarter ([6]; 40 g./a.): 4; Herbicidal effect, common purslane ([7]; 10 g./a.): 4; Herbicidal effect, common purslane ([7]; 20 g./a.): 4; Herbicidal effect, common purslane ([7]; 40 g./a.): 4
4 | CCOP(=O)(SCC(=O)N1CCCCC1CC)SCC(C)C (stereo not drawn) [Compound 77] | 5 | 5 | 5 | 5 | 5 | 5 | 0 | 0 | 1 | 5 | 5 | 5 | 5 | 5 | 5 | 5 | 5 | 5 | 0 | 0 | Herbicidal effect, radish (radish; 40 g./a.): 0; Herbicidal effect, common lambsquarter ([6]; 10 g./a.): 5; Herbicidal effect, common lambsquarter ([6]; 20 g./a.): 5; Herbicidal effect, common lambsquarter ([6]; 40 g./a.): 5; Herbicidal effect, common purslane ([7]; 10 g./a.): 5; Herbicidal effect, common purslane ([7]; 20 g./a.): 5; Herbicidal effect, common purslane ([7]; 40 g./a.): 5
